Test [1] addresses T1, ALK2 (Mus musculus, UniProt P37172).
T1 construct: The C2C12 cell line was selected for the measurement of ALK2 activity using BMP6 as the agonist; host or cells: C2C12
T1 sequence (P37172 21-509): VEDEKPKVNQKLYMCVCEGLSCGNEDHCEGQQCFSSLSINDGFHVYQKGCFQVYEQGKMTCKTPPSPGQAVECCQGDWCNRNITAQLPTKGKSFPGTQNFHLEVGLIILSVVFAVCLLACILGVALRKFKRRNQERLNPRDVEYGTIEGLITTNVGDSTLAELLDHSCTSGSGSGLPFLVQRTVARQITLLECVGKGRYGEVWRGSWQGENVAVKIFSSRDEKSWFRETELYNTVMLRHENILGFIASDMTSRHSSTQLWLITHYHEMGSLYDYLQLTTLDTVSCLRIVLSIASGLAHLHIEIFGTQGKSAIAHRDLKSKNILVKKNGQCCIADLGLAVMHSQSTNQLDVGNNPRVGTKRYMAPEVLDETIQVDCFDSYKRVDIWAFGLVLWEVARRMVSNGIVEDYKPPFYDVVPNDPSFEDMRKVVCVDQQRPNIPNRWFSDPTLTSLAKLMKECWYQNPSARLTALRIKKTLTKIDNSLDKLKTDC
The test can be described thus: HTRF pSMAD1 cell-based ALK2 assay (C2C12 cells, BMP6 as agonist). As to the method: 2. HTRF Cell-Based ALK1 and ALK2 Assays in 384-Well Plate Format We have developed a cell based ALK1 kinase assay and a cell-based ALK2 assay. The BAOEC cell line was employed for the measurement of ALK1 activity using BMP9 as the agonist. The C2C12 cell line was selected for the measurement of ALK2 activity using BMP6 as the agonist. The kinase specificity was defined by the specific cell line and agonist. The kinase activity was determined by the status of SMD 1/5/8 phosphorylation stimulated by the agonist.
HyClone Fetal Bovine Serum was obtained from GE healthcare life sciences (Logan, Utah). BMP6 and BMP9 were purchased from R&D System. […] The compound plates and the white solid MB assay plates were purchased from Greiner Bio-one (Monroe, N.C.).
HTRF optimization experiments were performed in 384 well plate format. […] Pre-starved cells were then plated in 384 well plate in the starvation medium (containing in 0.1% FBS). After 4 hours, compounds were added to the assay plate and incubated for 30 minutes. The assay plate was then added with BMP6 for C2C12 cells or BMP9 for BAOEC cells and incubated for 30 minutes.
HTRF assay was performed to measure the status of SMAD 1 phosphorylation after stimulated with the agonist (Table 3). This HTRF phospho SMAD1 cell assay was developed and optimized for the homogenous detection of phospho SMAD 1 levels in cells. […] The plate was incubated at room temperature for overnight.

In the next test the target is ALK1 (Homo sapiens, UniProt P37023). The test can be described thus: TR-FRET enzymatic ALK kinase assay, ALK1.
Chain of ALK1 (P37023 22-503): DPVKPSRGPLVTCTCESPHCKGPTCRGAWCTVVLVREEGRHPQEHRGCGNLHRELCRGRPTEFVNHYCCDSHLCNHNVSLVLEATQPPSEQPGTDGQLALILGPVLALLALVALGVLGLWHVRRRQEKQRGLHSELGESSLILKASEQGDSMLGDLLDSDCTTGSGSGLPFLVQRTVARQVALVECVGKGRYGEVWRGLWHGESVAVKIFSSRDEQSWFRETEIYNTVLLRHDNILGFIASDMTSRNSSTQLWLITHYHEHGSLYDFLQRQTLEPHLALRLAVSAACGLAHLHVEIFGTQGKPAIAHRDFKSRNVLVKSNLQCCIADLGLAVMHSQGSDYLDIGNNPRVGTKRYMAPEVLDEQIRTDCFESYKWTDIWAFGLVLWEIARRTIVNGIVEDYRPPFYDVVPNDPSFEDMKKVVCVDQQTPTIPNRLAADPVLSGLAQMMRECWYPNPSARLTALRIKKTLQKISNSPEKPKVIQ
Test [2] deals with T2, ALK2 (Homo sapiens, UniProt Q04771).
T2 sequence (Q04771 21-509): T1 sequence (P37172 21-509) with V1M, Q10P, I121L, E162D, S310P
The test can be described thus: TR-FRET enzymatic ALK kinase assay, ALK2.

The next test addresses ALK3 (Homo sapiens, UniProt P36894). The test can be described thus: TR-FRET enzymatic ALK kinase assay, ALK3.
The target of a further test is T3, ALK4 (Homo sapiens, UniProt P36896).
T3 sequence (P36896 24-505): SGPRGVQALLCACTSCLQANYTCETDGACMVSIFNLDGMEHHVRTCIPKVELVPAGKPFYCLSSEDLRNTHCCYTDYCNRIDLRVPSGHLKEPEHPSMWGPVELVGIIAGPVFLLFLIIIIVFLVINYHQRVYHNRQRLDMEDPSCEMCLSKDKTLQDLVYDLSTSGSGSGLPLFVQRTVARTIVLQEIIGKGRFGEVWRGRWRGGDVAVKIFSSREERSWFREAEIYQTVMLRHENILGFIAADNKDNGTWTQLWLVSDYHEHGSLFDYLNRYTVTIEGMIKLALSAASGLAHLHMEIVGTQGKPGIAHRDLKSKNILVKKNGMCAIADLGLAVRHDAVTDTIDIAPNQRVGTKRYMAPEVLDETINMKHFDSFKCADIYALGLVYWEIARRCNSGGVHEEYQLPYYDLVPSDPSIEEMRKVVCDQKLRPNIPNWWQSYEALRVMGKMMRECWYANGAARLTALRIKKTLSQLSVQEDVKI
Description: TR-FRET enzymatic ALK kinase assay, ALK4.

Another test concerns the target T4, ALK5 (Homo sapiens, UniProt P36897).
T4 sequence (P36897 34-503): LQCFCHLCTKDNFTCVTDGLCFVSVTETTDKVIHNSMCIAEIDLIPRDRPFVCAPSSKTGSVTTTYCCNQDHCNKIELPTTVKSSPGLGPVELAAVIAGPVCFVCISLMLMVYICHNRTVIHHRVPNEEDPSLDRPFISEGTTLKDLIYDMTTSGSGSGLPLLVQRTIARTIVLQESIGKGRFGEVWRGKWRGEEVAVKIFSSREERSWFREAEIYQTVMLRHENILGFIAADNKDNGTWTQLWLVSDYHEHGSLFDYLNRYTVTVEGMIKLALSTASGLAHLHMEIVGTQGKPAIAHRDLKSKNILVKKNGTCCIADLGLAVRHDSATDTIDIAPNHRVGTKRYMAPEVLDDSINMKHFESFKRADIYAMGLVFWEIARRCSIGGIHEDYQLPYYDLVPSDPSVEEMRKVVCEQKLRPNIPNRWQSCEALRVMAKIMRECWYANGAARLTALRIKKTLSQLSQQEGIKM
The test can be described thus: TR-FRET enzymatic ALK kinase assay, ALK5.

A further test deals with ALK6 (Homo sapiens, UniProt O00238). Description: TR-FRET enzymatic ALK kinase assay, ALK6.
Chain of ALK6 (O00238 14-502): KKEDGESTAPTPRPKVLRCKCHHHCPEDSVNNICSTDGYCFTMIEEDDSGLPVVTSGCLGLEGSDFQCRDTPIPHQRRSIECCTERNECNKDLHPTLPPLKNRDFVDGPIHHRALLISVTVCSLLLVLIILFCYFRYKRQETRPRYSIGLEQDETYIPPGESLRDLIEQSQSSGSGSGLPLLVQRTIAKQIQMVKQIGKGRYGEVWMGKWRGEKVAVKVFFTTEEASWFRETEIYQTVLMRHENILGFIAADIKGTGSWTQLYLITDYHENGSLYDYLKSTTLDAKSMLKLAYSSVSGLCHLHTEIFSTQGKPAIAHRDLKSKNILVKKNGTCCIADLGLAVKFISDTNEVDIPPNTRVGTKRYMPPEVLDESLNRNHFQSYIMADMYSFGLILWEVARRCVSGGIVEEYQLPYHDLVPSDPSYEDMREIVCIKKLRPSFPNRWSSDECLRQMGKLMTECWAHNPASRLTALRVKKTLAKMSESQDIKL
The mark [3] stands for this setting: cell-based assay, BMP6, read-out: Cell IC50 BMP6.
The mark [4] stands for this setting: HTRF assay, BMP6 as agonist, C2C12 cells, read-out: BMP6 HTRF.

Positions count from the first letter of the chain named. Read-outs that look alike come from different tables or passages of the source.

Chain of ALK3 (P36894 24-532): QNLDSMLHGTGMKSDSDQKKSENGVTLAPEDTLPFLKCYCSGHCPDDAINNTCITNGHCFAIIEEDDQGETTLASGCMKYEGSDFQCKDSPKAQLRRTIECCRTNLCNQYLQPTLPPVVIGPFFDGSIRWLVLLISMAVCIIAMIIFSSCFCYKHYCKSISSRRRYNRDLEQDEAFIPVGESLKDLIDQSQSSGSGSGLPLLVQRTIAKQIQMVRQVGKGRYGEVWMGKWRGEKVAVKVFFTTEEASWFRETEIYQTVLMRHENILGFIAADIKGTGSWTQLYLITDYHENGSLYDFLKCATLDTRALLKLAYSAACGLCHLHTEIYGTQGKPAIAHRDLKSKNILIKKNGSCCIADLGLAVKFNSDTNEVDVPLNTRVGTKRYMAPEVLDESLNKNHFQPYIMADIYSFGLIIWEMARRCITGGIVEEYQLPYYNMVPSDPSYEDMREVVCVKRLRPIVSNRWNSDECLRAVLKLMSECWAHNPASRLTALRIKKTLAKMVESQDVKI

For the compound `CS(=O)(=O)c1cccc(-c2cnn3cc(-c4ccc(C(F)(F)CN5CCNCC5)cc4)cnc23)c1` [Compound 122, 6-(4-(1,1-difluoro-2-(piperazin-1-yl)ethyl)phenyl)-3-(3-(methylsulfonyl)phenyl)pyrazolo[1,5-a]pyrimidine], the IC50 on ALK2 [1] (setting [3]) was 2 nM; against ALK1, 370 nM; on ALK2 [2], 250 nM; against ALK3, above 10000 nM; against ALK4 it was above 10000 nM; against ALK5 it was above 10000 nM. The compound further displayed an IC50 on ALK6 above 10000 nM.
As for `CC(O)c1cccc(-c2cnn3cc(-c4ccc(OC5(CN6CCCC6)CC5)cc4)cnc23)c1` (stereo not shown) [Compound 167, 1-(3-(6-(4-(1-(pyrrolidin-1-ylmethyl)cyclopropoxy)phenyl)pyrazolo[1,5-a]pyrimidin-3-yl)phenyl)ethanol], the IC50 at ALK2 [1] (setting [4]) was 370 nM; against ALK1, 600 nM; at ALK2 [2], 49 nM; on ALK3, 1100 nM; on ALK4, above 10000 nM; against ALK5, above 10000 nM. Moreover, the IC50 against ALK6 is 9300 nM.
In the case of `CN1CCN(c2ccc(-c3cnc4c(-c5ccc(S(N)(=O)=O)c6ccccc56)cnn4c3)cc2)CC1` [Compound 62, 4-(6-(4-(4-methylpiperazin-1-yl)phenyl)pyrazolo[1,5-a]pyrimidin-3-yl)naphthalene-1-sulfonamide], the IC50 on ALK2 [1] (setting [3]) is 3000 nM; against ALK1, 140 nM; against ALK2 [2], 74 nM; at ALK3, above 10000 nM; at ALK4, above 10000 nM; against ALK5, above 10000 nM. This compound had an IC50 at ALK6 above 10000 nM.
Take `CN(C)CCOc1ccc(-c2cnc3c(-c4ccc(S(N)(=O)=O)c5ccccc45)cnn3c2)cc1` [Compound 61, 4-(6-(4-(2-(dimethylamino)ethoxy)phenyl)pyrazolo[1,5-a]pyrimidin-3-yl)naphthalene-1-sulfonamide]: the IC50 was 2200 nM at ALK2 [1] (setting [3]); 470 nM against ALK1; 110 nM at ALK2 [2]; above 10000 nM at ALK3; above 10000 nM on ALK4; above 10000 nM against ALK5. On ALK6, this compound showed an IC50 above 10000 nM.
In the case of `Cc1ccc(S(C)(=O)=O)cc1-c1cnn2cc(-c3ccc(N4[C@H](C)CNC[C@@H]4C)cc3)cnc12` [Compound 116, 6-(4-((2R,6S)-2,6-dimethylpiperazin-1-yl)phenyl)-3-(2-methyl-5-(methylsulfonyl)phenyl)pyrazolo[1,5-a]pyrimidine], the IC50 at ALK2 [1] (setting [3]) is 319 nM; against ALK1, above 10000 nM; on ALK2 [2], 2200 nM; on ALK3, above 10000 nM; against ALK4, above 10000 nM; against ALK5, above 10000 nM. Moreover, the IC50 on ALK6 is above 10000 nM.
As for `Cc1ccc(-c2cnn3cc(-c4ccc(N5[C@H](C)CNC[C@@H]5C)cc4)cnc23)cc1S(N)(=O)=O` [Compound 55, 5-(6-(4-((2R,6S)-2,6-dimethylpiperazin-1-yl)phenyl)pyrazolo[1,5-a]pyrimidin-3-yl)-2-methylbenzenesulfonamide], the IC50 on ALK2 [1] (setting [3]) was 4730 nM; on ALK1, 800 nM; on ALK2 [2], 190 nM; against ALK3 it was above 10000 nM; on ALK4 it was above 10000 nM; against ALK5 it was above 10000 nM. Further, on ALK6, the IC50 is above 10000 nM.
`C[C@@H](O)c1cccc(-c2cnn3cc(-c4ccc(OC5(CN6CCCCC6)CC5)cc4)cnc23)c1` [Compound 152, (R)-1-(3-(6-(4-(1-(piperidin-1-ylmethyl)cyclopropoxy)phenyl)pyrazolo[1,5-a]pyrimidin-3-yl)phenyl)ethanol]: the IC50 is 450 nM on ALK2 [1] (setting [4]); 590 nM on ALK1; 54 nM against ALK2 [2]; 1300 nM at ALK3; above 10000 nM against ALK4; above 10000 nM against ALK5. This compound also came in with an IC50 at ALK6 of 5600 nM.
As to `C[C@@H]1CNC[C@H](C)N1c1ccc(-c2cnc3c(-c4cccc(CCO)c4)cnn3c2)cc1` [Compound 70, 2-(3-(6-(4-((2R,6S)-2,6-dimethylpiperazin-1-yl)phenyl)pyrazolo[1,5-a]pyrimidin-3-yl)phenyl)ethanol], the IC50 at ALK2 [1] (setting [3]) was 1200 nM; against ALK1 it was 280 nM; against ALK2 [2], 66 nM; on ALK3 it was 2800 nM; against ALK4, above 10000 nM; on ALK5 it was above 10000 nM. The compound also returned an IC50 on ALK6 above 10000 nM.
With `C[C@@H]1CNC[C@H](C)N1c1ccc(-c2cnc3c(-c4ccc(Cl)c5ccccc45)cnn3c2)cc1` [Compound 44, 3-(4-chloronaphthalen-1-yl)-6-(4-((2R,6S)-2,6-dimethylpiperazin-1-yl)phenyl)pyrazolo[1,5-a]pyrimidine], the IC50 at ALK2 [1] (setting [3]) is 5500 nM; at ALK1, 390 nM; against ALK2 [2], 130 nM; against ALK3, 2000 nM; against ALK4 it was above 10000 nM; against ALK5, above 10000 nM. In addition, on ALK6, the IC50 was above 10000 nM.
For `Cc1ccc([S+](=O)([O-])C(F)(F)F)cc1-c1cnn2cc(-c3ccc(N4[C@H](C)CNC[C@@H]4C)cc3)cnc12` [Compound 107, 6-(4-((2R,6S)-2,6-dimethylpiperazin-1-yl)phenyl)-3-(2-methyl-5-((trifluoromethyl)sulfonyl)phenyl)pyrazolo[1,5-a]pyrimidine], the IC50 at ALK2 [1] (setting [3]) is 2130 nM; at ALK1, above 10000 nM; at ALK2 [2], 6600 nM; against ALK3 it was above 10000 nM; against ALK4, above 10000 nM; against ALK5, above 10000 nM. For the same compound, the IC50 at ALK6 was above 10000 nM.

These data come from US10513521B2, “Compositions and methods for inhibiting BMP” (The Brigham and Women's Hospital, Inc., priority 2014, dated 2019).
